Publication PMC4130364, “Kinetics of Mushroom Tyrosinase and Melanogenesis Inhibition by N-Acetyl-pentapeptides” (The Scientific World Journal, 2014)

Legend:
[1] = system: B16F10 melanoma cells; test: Assessment of cellular melanin content (α-MSH-induced melanogenesis); assay type: cell-based, mouse
Method: Cellular melanin content was determined as described previously. Briefly, 1 × 10^5 B16F10 cells were seeded in 24-well plates and cultured at 37°C and 5% CO2 for 48 h. Subsequently, the cells were treated with 100 nM α-MSH for 24 h, followed by various concentrations (0, 0.1, 0.5, and 1 mg/mL) of Ac-P4 or kojic acid for 24 h. The cells were washed twice with PBS and cell pellets were then dissolved in 100 μL of 1 N NaOH in 10% DMSO, for 1 h at 80°C. The relative melanin content was determined by measuring the absorbance at 405 nm, using the ELISA reader (TECAN, Austria). The melanin content was calculated using the following equation: (Δsample/Δcontrol) × 100%. All determinations were performed in triplicate.

[2] = target: T1, mushroom tyrosinase (Agaricus bisporus, UniProt C7FF04); test: Inhibitory effect on mushroom tyrosinase (diphenolase activity, oxidation of L-DOPA); assay type: biochemical; conditions: for IC50: 1 mM L-DOPA substrate, 25°C, 30 min, means ± SD of three replicates, read-out: IC50 against diphenolase activity of mushroom tyrosinase (converted)
Method: In a 96-well plate, 20 μL of 0, 0.01, 0.05, 0.1, 0.2, 0.5, and 1 mg/mL of N-acetyl-pentapeptides was mixed with 160 μL of 1 mM L-DOPA. After 20 μL of 212.65 μg/mL of mushroom tyrosinase (in 50 mM potassium phosphate buffer) was added, the solutions were incubated at 25°C for 30 min. All experiments were conducted in triplicate. The absorbance was measured at 475 nm by using an ELISA reader (TECAN, Austria). The tyrosinase inhibitory activity was calculated using the following equation: [(Δcontrol − Δsample)/Δcontrol] × 100%. The IC50 value was determined using regression of a constructing dose-response curve at which 50% target activity is lost.

[3] = system: B16F10 cells; test: Cell viability assay (MTT); assay type: cell-based, mouse; conditions: 0.1 to 1 mg/mL, 24 h
Method: B16F10 cells were cultured in Dulbecco's modified Eagle's medium (DMEM; Gibco Life Technologies, Carlsbad, CA, USA), supplemented with 10% fetal bovine serum, 100 units/mL of penicillin G, 100 μg/mL of streptomycin, and 0.25 μg/mL of amphotericin, and then incubated at 37°C with 5% CO2. The viability of cells treated with N-acetyl-pentapeptides was determined using an MTT assay. Briefly, 3 × 10^4 B16F10 cells were seeded and adhered in 96-well plates. After 24 h, DMEM was removed and 200 μL of various concentrations of fresh DMEM and N-acetyl-pentapeptide solution were added, and the cells were incubated for 24 h. After incubation, the medium was removed, and 100 μL of MTT in PBS solution (0.5 mg/mL) was added to each well, and the cells were incubated for 40 min at 37°C. Subsequently, the MTT solution was removed and 100 μL of DMSO was added to each well, and the plate was gently shaken to dissolve the formazan crystals. The absorbance of each well was measured at 570 nm, using the ELISA reader. All determinations were performed in triplicate.

[4] = target: T2, intracellular tyrosinase activity in B16F10 cells (Mus musculus, UniProt P11344); test: Measurement of intracellular tyrosinase activity (α-MSH-induced); assay type: cell-based; conditions: B16-F10, 1 mg/ml, 24 h after 100 nM α-MSH
T2 construct: Cell lysate; endogenous in cells; host or cells: B16F10 mouse melanoma cells (BCRC, Hsinchu, Taiwan), α-MSH-stimulated
T2 sequence (P11344 19-533): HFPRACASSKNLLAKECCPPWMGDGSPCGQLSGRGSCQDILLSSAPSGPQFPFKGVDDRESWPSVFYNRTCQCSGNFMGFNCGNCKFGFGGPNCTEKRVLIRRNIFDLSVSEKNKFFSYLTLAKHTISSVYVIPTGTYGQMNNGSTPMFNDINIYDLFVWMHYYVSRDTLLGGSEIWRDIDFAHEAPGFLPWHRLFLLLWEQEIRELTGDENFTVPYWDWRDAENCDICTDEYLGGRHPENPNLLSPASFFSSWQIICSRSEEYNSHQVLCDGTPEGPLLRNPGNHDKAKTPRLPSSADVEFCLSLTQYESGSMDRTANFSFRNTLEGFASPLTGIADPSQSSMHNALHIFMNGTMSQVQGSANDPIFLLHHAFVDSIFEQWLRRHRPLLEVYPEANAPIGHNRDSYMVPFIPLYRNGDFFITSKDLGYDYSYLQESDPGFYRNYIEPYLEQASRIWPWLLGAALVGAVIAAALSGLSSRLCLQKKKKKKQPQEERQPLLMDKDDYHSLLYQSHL
Method: Fig 1. Inhibitory effects of Ac-P4 on α-MSH-induced tyrosinase activity in B16F10 cells. Ac-P4 inhibited α-MSH-induced tyrosinase activity in a dose-dependent manner […]
Measurement of intracellular tyrosinase activity
The cells were seeded in 24-well plates (8 × 10^4 cells/well), and cultured in 37 °C, 5% CO2 for 24 h. Then the cells were treated with 100 nM α-MSH for 24 h and then added Ac-P4 for 24 h. Cells rinsed with PBS twice and lysed with phosphate buffer (pH 6.8) containing 1% Triton X-100 followed by freezing and thawing three times. Centrifugation at 15,000 rpm for 10 min obtained clarified lysates. Cell lysate (90 μL) mixed with fresh prepared L-DOPA (10 μL) at 37 °C for 30 min. Tyrosinase activity was evaluated by the absorbance at 475 nm using an ELISA reader (Tecan, […]
Tyrosinase activity (%) = (△Abssample/△Abscontrol) ×100%.
(also on this page, place not known: (mg/ml)control 0 0.1 0.5 Relative (% control) 0 50 150 200 250 α-MSH + α-MSH - + + + + * 1 of 100 Ac-P4 Tyrosinase activity)
(1 picture or pasted object on this page, not shown here)

[5] = target: T1, mushroom tyrosinase; test: Kinetic analysis of tyrosinase inhibition (Lineweaver-Burk plots); assay type: biochemical; conditions: for Inhibition type: Lineweaver-Burk plot analysis; for K IS: inhibition constant from secondary plot (enzyme-substrate complex); for K IS / Ki: L-DOPA 0.25-4 mM, inhibitor 0, 0.1, 0.2 mg/mL; for Ki: inhibition constant from secondary plot
Method: In a 96-well plate, the kinetic properties of N-acetyl-pentapeptides (20 μL of 0, 0.1, and 0.2 mg/mL) in the inhibition of tyrosinase (20 μL of 212.65 μg/mL) were determined using various concentrations of L-DOPA (160 μL of 0.25, 0.5, 1, 2, and 4 mM) as substrates. The reaction mixture was measured using an ELISA reader at 475 nm for 10 min. All experiments were conducted in triplicate. The inhibition mechanism was assessed using Lineweaver-Burk plots, and the inhibition constants K IS and K I were obtained from second plots of the apparent 1/V max and apparent K m/V max against the inhibitor concentration, respectively, as described by Liao et al..

[6] = system: diphenolase; design: method as in PMID 7714722; conditions: ref [40], [41]; cited from earlier work

T1 sequence (C7FF04 1-392): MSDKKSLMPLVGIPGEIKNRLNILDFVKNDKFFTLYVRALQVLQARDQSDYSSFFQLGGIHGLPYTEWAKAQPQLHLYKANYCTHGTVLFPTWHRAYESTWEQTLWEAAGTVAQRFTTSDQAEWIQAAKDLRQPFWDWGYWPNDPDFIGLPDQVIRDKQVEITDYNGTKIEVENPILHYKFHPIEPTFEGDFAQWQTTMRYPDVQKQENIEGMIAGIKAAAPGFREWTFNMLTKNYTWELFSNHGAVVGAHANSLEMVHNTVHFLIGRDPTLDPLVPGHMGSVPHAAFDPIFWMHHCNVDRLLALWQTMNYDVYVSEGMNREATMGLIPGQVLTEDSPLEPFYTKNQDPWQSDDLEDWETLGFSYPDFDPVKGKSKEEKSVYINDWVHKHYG

Compound | inhibitory effect on melanin production ([1]; 0.1 mg/mL, 24 h after 100 nM α-MSH) [%] | inhibitory effect on melanin production ([1]; 0.5 mg/mL, 24 h after 100 nM α-MSH) [%] | inhibitory effect on melanin production ([1]; 1 mg/mL, 24 h after 100 nM α-MSH) [%] | fold stronger than kojic acid in inhibiting melanin formation ([1]; ratio of melanin content IC50s (mM)) [fold] | lag time ([2]; peptide concentration 0.5 mg/mL (b28 words it as concentrations less than 0.5 mg/mL)) [s] | lag time ([2]; peptide concentration 1 mg/mL) [s] | cytotoxicity in B16F10 cells [3] | inhibition at 1000 µg/mL [4] [%] | Inhibition type [5] | K IS [5] [mg/mL] | inhibition at 100 µg/mL ([1]; Mus musculus, B16-F10, 0.1 mg/mL, 24 h after 100 nM α-MSH, read-out: inhibitory effect on melanin production) [%] | inhibition at 500 µg/mL ([1]; Mus musculus, B16-F10, 0.5 mg/mL, 24 h after 100 nM α-MSH, read-out: inhibitory effect on melanin production) [%] | inhibition at 1000 µg/mL ([1]; Mus musculus, B16-F10, 1 mg/mL, 24 h after 100 nM α-MSH, read-out: inhibitory effect on melanin production) [%] | IC50 ([1]; Mus musculus, B16-F10, B16F10, α-MSH-induced, reillustrated in molarity, read-out: IC50 for inhibitory effect on melanin content) [µM] | inhibition type on diphenolase [6] | IC50 [2] [µM] | Ki [5] [µM]
Ac-RSRFS-OH [Ac-P4, Ac-RSRFS] | 48.63 | 78.18 | 94.7 | 16.7 | 80 | 500 | did not induce any significant cytotoxicity | 57.9 | Mixed | 0.517 | – | – | – | – | – | – | –
O=c1cc(CO)occ1O [kojic acid, reference compound] | – | – | – | – | – | – | – | – | – | – | 47.2 | 70.6 | 98.6 | 1510 | mixed-type | – | –
Ac-RSRFK-OH [Ac-P1, Ac-RSRFK] | – | – | – | – | – | 110 | – | – | Mixed | 1.278 | – | – | – | – | – | 1020 | 376
Ac-KSSFR-OH [Ac-P3, Ac-KSSFR] | – | – | – | – | – | 70 | – | – | Mixed | 1.685 | – | – | – | – | – | 1220 | 415
Ac-KSRFR-OH [Ac-P2, Ac-KSRFR] | – | – | – | – | – | 80 | – | – | Mixed | 2.003 | – | – | – | – | – | 1060 | 382
